Test results reported in patent US20190082696A1, “METHOD FOR CONTROLLING PESTS OF PLANTS” (BASF SE, priority 2016, published 2019).

Tested on: green peach aphid (Myzus persicae)
Test: Biological activity of mixtures: green peach aphid systemic test with Colby analysis
Assay type: in vivo
Details: 3 days
Description: Synergism can be described as an interaction where the combined effect of two or more compounds is greater than the sum of the individual effects of each of the compounds. The presence of a synergistic effect in terms of percent control, between two mixing partners (X and Y) can be calculated using the Colby equation (Colby, S. R., 1967, Calculating Synergistic and Antagonistic Responses in Herbicide Combinations, Weeds, 15, 20-22):
When the observed combined control effect is greater than the expected combined control effect (E), then the combined effect is synergistic.
The analysis of synergism or antagonism between the mixtures or compositions was determined using Colby's equation.
For evaluating control of green peach aphid (Myzus persicae) through systemic means the test unit consisted of 96-well-microtiter plates containing liquid artificial diet under an artificial membrane.
The compounds or mixtures were formulated using a solution containing 75% water and 25% DMSO. Different concentrations of formulated compounds or mixtures were pipetted into the aphid diet, using a custom built pipetter, at two replications. […]
After application, 5-8 adult aphids were placed on the artificial membrane inside the microtiter plate wells. […] Aphid mortality and fecundity was then visually assessed.

## CC1(C)C(C=C(Cl)Cl)C1C(=O)OC(C#N)c1cccc(Oc2ccccc2)c1 (centres unmarked) [Alphacypermethrin]
10 ppm
  Average Control %: 0%

## CCC(=O)N1CC2(C1)OCc1cc(C3=NOC(c4cc(Cl)c(F)c(Cl)c4)(C(F)(F)F)C3)ccc12 (centres unmarked) [Compound I-1]
0.4 ppm
  Average Control %: 0%
